The source made the active and inactive calls.
Experiments:
Type in all cases: functional
[1] = biological target: T1, DNA repair and recombination protein RAD54-like (Homo sapiens, UniProt Q92698); test: RAD54 Holliday junction migration blockers – biochemical, fluorescence, cherry-picked samples, dose series, confirmation (AID 651657)
T1 sequence (Q92698 whole entry): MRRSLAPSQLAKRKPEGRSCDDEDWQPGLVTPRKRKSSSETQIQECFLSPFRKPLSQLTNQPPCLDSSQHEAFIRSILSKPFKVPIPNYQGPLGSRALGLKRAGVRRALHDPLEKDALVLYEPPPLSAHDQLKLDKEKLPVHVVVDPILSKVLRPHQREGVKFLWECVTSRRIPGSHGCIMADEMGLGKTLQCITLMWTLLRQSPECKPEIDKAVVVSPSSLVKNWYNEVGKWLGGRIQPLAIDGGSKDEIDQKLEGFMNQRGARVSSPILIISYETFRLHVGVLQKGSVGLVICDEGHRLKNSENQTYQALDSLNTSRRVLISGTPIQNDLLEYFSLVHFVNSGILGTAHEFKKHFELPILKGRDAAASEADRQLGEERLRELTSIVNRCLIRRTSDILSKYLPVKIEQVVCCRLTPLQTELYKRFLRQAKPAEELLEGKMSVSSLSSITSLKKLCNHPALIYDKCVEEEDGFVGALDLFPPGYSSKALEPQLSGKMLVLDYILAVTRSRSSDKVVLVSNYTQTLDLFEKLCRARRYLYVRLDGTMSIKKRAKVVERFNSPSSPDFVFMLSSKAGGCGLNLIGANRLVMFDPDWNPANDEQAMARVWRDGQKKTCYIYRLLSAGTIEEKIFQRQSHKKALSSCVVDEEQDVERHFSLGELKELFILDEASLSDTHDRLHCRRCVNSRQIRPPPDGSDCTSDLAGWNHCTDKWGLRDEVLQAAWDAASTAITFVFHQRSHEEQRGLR

[2] = biological target: T2, Sentrin-specific protease 8 (Homo sapiens, UniProt Q96LD8)
T2 sequence (Q96LD8 whole entry): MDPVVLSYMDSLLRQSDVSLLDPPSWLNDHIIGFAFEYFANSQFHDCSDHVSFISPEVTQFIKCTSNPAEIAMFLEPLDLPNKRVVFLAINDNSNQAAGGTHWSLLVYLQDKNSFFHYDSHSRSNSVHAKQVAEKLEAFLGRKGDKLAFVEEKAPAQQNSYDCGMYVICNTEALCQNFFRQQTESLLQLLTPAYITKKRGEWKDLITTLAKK

[3] = biological target: T2, Sentrin-specific protease 8; remark: listed apart in the source
[4] = biological target: T3, Replicative DNA helicase DnaB (Mycobacterium tuberculosis, UniProt P9WMR3); test: DnaB intein splicing inhibitors, dose response, biochemical, cell-free fluorescence (AID 449749)
T3 sequence (P9WMR3 whole entry): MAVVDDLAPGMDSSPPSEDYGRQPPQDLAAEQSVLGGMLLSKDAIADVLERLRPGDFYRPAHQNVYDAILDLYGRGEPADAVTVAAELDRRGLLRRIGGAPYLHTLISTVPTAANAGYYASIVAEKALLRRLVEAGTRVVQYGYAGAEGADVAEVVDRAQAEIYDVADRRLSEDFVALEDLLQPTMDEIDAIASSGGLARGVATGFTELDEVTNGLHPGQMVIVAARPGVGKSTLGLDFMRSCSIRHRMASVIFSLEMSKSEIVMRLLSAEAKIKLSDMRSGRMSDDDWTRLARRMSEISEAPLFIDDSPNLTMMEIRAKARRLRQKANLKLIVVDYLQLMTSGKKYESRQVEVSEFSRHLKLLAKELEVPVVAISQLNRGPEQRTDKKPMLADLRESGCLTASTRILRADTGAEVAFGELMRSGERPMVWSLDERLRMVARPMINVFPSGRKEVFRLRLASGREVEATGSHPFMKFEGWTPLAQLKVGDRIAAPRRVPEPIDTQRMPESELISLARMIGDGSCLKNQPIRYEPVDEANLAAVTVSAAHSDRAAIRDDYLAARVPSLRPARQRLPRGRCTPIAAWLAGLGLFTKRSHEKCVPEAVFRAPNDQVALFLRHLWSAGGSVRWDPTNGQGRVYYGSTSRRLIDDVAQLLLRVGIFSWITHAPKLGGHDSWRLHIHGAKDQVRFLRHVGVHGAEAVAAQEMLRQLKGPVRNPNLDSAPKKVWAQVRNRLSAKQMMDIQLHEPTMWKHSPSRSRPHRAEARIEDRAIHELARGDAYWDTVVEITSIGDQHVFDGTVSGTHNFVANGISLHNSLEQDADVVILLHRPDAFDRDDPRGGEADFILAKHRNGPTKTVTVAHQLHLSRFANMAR

[5] = biological target: T4, Protein RecA (Mycobacterium tuberculosis, UniProt P9WHJ3); test: Fluorescence Cell-Free Homogeneous Dose Retest to Identify Inhibitors of RecA-Intein Splicing Activity. [Related pubchem assays (depositor defined):AID2097, AID2223, AID489010, AID492950]
T4 sequence (P9WHJ3 whole entry): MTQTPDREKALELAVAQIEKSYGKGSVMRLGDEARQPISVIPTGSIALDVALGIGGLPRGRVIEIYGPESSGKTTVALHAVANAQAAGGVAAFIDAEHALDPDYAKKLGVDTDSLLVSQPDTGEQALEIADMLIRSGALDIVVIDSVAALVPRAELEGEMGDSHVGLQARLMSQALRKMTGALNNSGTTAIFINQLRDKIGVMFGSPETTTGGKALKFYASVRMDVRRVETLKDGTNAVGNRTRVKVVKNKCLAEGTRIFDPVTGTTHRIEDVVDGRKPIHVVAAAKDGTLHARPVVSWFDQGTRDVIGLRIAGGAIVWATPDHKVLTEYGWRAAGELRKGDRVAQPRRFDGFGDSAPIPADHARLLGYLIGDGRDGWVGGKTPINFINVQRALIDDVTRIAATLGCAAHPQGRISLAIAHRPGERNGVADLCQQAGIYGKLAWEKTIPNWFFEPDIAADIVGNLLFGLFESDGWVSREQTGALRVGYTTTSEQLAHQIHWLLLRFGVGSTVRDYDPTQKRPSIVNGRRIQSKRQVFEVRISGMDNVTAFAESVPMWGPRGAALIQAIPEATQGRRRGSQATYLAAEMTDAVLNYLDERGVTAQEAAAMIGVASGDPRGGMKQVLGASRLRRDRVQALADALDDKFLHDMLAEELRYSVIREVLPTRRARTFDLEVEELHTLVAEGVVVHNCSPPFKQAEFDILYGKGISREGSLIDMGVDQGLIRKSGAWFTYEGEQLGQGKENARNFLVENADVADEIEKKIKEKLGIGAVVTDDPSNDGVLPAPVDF

[6] = biological target: T5, Protein skinhead-1 (Caenorhabditis elegans, UniProt P34707)
T5 sequence (P34707 whole entry): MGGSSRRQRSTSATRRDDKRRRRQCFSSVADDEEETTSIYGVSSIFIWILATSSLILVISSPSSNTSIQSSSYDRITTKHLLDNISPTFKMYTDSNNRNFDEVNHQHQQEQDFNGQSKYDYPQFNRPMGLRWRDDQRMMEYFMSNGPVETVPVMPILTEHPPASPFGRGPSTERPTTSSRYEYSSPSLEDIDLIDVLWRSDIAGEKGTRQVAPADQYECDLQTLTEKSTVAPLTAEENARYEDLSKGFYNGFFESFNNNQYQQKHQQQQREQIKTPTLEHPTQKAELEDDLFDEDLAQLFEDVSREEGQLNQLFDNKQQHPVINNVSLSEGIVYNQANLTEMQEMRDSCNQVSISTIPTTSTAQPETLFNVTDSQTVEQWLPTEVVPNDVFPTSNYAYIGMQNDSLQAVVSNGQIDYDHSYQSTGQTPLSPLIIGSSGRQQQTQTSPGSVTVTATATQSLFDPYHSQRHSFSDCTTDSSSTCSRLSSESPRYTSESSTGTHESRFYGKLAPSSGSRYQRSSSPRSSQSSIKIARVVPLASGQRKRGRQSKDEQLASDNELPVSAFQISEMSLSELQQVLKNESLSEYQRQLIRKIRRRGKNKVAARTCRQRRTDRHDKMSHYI

[7] = viability of PTEN-deleted HCT116 cells – cell-based, HCT116 PTEN knockout, dose response (AID 1047);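 also: HCT116 colon tumor cells with PTEN knocked out; cells exposed to compound for 60 hours before readout; potency for loss of cell viability measured by luminescence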
[8] = viability of HCT116 lacking mutant beta-catenin – cell-based, human colon tumor, dose response (AID 1045);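 also: HCT116 colon tumor cells with beta catenin knocked out; cells exposed to compound for 60 hours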

Compound	AC50 [1]	IC50 [2]	IC50 [3]	other results
CCN(CC)CCn1c2ccc(F)cc2c2nc(C)sc21	20.9 µM (active)			
COC/C=C/C1=CC2=CC(=O)C(C)(OC(=O)c3cnc4ccccc4n3)C(=O)C2=CN1CCCCO (stereo not given)		17.6 µM (active)	6.81 µM (active)	
Cc1n[nH]c(O)c1C(c1cc(Br)ccc1O)c1c(C)n[nH]c1O		23 µM (active)	34 µM (active)	AC50 [4]: 0.347 µM (active); EC50 [5]: 0.275 µM (active)
CC1(OC(=O)CCc2ccccc2)C(=O)C=C2C=C3CCCN3C=C2C1=O (stereo not given)		18.1 µM (active)	12.1 µM (active)	
COC(=O)CCCC1=CC2=CC(=O)C(C)(OC(=O)c3cccs3)C(=O)C2=CN1CC(C)C (stereo not given)		11.1 µM (active)	7.62 µM (active)	IC50 [6]: > 100 µM (inactive)
CCN(CC)CCCNc1nc2cc(OC)c(OC)cc2c2nc(-c3cccnc3)nn12	2.15 µM (active)			EC50 [7]: 8.62 µM (active); EC50 [8]: 7.33 µM (active)

Source: ChEMBL document CHEMBL1201862, “PubChem BioAssay data set” (2004)
